Where a SMILES comes first, the peptide text is derived from it.
How the values were obtained:
[1] = target: T1, Apoptosis regulator Bcl-2 (Homo sapiens, UniProt P10415); assay: Inhibition of Flu-BakBH3 binding to recombinant GST-tagged Bcl-2 (unknown origin) incubated for 30 mins by competitive fluorescence polarization assay
Bcl-2-like protein 1 [2] = target: T2, Bcl-2-like protein 1 (Homo sapiens, UniProt Q07817); assay: Binding affinity to recombinant His-tagged human Bcl-xL expressed in Escherichia coli assessed as inhibition constant by SPR analysis
[3] = target: T1, Apoptosis regulator Bcl-2; assay: Binding affinity to Bcl-2 (unknown origin) assessed as inhibition constant
Bcl-2-like protein 1 [4] = target: T2, Bcl-2-like protein 1; assay: Binding affinity to Bcl-xL (unknown origin) assessed as inhibition constant
[5] = target: T3, Induced myeloid leukemia cell differentiation protein Mcl-1 (Homo sapiens, UniProt Q07820); assay: Binding affinity to Mcl-1 (unknown origin) assessed as inhibition constant
[6] = target: T1, Apoptosis regulator Bcl-2; assay: Binding affinity to recombinant Bcl-2 (unknown origin) expressed in Escherichia coli BL21 (DE3) cells assessed as dissociation constant by MST analysis
[7] = target: T1, Apoptosis regulator Bcl-2; assay: Inhibition of Bcl-2 (unknown origin) by ELISA analysis
[8] = Inhibition of Bcl-2/Mcl-1 in human MCF7 cells; format: cell-based
RS4-11 = assay: Induction of apoptosis in human RS4-11 cells; format: functional, cell-based
[9] = Half-life in human; format: ADME
[10] = target: T3, Induced myeloid leukemia cell differentiation protein Mcl-1; assay: Binding affinity to Mcl-1 (unknown origin) assessed as inhibition constant by TR-FRET assay
[11] = target: T1, Apoptosis regulator Bcl-2; assay: Binding affinity to Bcl-2 (unknown origin) by ELISA analysis
[12] = target: T1, Apoptosis regulator Bcl-2; assay: Binding affinity to recombinant His-tagged human Bcl-2 expressed in Escherichia coli assessed as inhibition constant by SPR analysis
[13] = target: T1, Apoptosis regulator Bcl-2; assay: Inhibition of Flu-BakBH3 binding to GST-tagged Bcl-2 (unknown origin) preincubated for 10 mins followed by Flu-BakBH3 addition and measured after 30 mins by competitive fluorescence polarization assay
Bcl-2-like protein 2 = target: T4, Bcl-2-like protein 2 (Homo sapiens, UniProt Q92843); assay: Binding affinity to Bcl-w (unknown origin) assessed as inhibition constant by competitive fluorescence polarization assay
T4 sequence (Q92843 whole entry): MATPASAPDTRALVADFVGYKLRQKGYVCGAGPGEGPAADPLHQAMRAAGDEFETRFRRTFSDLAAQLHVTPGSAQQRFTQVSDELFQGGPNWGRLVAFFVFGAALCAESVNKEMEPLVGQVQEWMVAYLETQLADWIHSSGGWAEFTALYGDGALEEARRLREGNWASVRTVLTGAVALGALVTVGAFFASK

T1 sequence (P10415 whole entry): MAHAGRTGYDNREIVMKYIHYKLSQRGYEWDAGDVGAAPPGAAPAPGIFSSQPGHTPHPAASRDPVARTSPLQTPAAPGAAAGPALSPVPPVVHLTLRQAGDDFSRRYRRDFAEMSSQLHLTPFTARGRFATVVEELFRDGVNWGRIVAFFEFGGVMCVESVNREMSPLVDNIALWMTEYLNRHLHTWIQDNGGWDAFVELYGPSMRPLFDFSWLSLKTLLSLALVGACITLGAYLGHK
T3 sequence (Q07820 whole entry): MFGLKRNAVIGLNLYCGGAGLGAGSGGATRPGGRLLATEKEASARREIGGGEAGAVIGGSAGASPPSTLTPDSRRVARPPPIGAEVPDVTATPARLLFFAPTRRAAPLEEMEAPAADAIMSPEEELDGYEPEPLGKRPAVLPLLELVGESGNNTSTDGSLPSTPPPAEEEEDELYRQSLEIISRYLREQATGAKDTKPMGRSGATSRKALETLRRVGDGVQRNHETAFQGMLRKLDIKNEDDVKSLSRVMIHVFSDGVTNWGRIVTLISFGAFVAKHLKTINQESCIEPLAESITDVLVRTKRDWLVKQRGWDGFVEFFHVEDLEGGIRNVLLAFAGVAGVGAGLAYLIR
T2 sequence (Q07817 whole entry): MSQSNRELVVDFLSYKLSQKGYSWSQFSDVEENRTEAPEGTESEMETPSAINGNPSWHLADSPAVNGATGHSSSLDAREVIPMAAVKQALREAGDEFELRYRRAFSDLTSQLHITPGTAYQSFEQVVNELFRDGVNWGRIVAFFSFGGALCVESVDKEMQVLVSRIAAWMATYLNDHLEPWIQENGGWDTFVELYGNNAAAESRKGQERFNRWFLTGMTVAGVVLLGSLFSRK

**Q.** With CCOC(=O)C1=C(N)Oc2ccc(Br)cc2C1C(C#N)C(=O)OCC (stereo not given) as the molecule, how does the IC50 [1] read?
**A.** 9000 nM

**Q.** Which Ki (Bcl-2-like protein 1 [2]) does the source give for CCCCCCCCCCCCCCCC(=O)N[C@H](C(=O)N[C@@H](C)C(=O)N[C@@H](CCC(N)=O)C(=O)N[C@@H](CCC(=O)O)C(=O)N[C@@H](CCCNC(=N)N)C(=O)N[C@@H](CCCNC(=N)N)C(=O)N[C@H](C(=O)NCC(=O)N[C@@H](CC(=O)O)C(=O)N[C@@H](CCC(=O)O)C(=O)N[C@@H](Cc1ccccc1)C(N)=O)[C@@H](C)CC)[C@@H](C)CC (HELM PEPTIDE1{[CCCCCCCCCCCCCCCC(=O)[*:2]].I.A.Q.E.R.R.I.G.D.E.F.[am]}$$$$V2.0) here?
**A.** 22.2 nM

**Q.** With CC1=C(C2=C(C)C(=O)C3C(C(C)C)=C(O)C(O)=CC3C2=O)C(=O)c2cc(O)c(O)c(C(C)C)c2C1=O (stereo not given) as the molecule, how does the Ki [3] read?
**A.** 35 nM

**Q.** And the Ki (Bcl-2-like protein 1 [4])?
**A.** 660 nM

**Q.** What about the Ki [5] of the same molecule?
**A.** 25 nM

**Q.** For COc1c(O)cc(O)c2c(=O)cc(-c3ccc(O)c(O)c3)oc12, which Kd [6] is on record?
**A.** 36100 nM

**Q.** With CC(C)(C)c1ccc(C(=O)NCCN2C(=O)c3cccc4c(Sc5ccc(Br)cc5)ccc(c34)C2=O)cc1 as the molecule, how does the IC50 [7] read?
**A.** 2110 nM

**Q.** What about the IC50 [8] of the same molecule?
**A.** 7900 nM

**Q.** With CC1(C)CCC(CN2CCN(c3ccc(C(=O)NS(=O)(=O)c4ccc(NCC5CCOCC5)c([N+](=O)[O-])c4)c(Oc4cnc5[nH]ccc5c4)c3)CC2)=C(c2ccc(Cl)cc2)C1 [VENETOCLAX] as the molecule, how does the EC50 (RS4-11) read?
**A.** 3 nM

**Q.** And the half-life [9]?
**A.** 26 h

**Q.** What about the Ki [10] of the same molecule?
**A.** > 444 nM

**Q.** For O=[N+]([O-])c1ccccc1Nc1nnc(-c2c[nH]c3ccccc23)o1, which IC50 [11] is on record?
**A.** 4270 nM

**Q.** Which Ki [12] does the source give for Ac-IAQERRIGDEF-NH2 here?
**A.** 9.48 nM

**Q.** For Cc1cc2c(C(C)C)c(O)c(O)cc2c(O)c1-c1c(C)cc2c(C(C)C)c(O)c(O)cc2c1O [APOGOSSYPOL], which EC50 [13] is on record?
**A.** 2800 nM

**Q.** With CC1(C)CCC(c2ccc(Cl)cc2)=C(CN2CCN(c3ccc(C(=O)NS(=O)(=O)c4ccc(N[C@H](CCN5CCOCC5)CSc5ccccc5)c(S(=O)(=O)C(F)(F)F)c4)cc3)CC2)C1 [NAVITOCLAX] as the molecule, how does the Ki (Bcl-2-like protein 2) read?
**A.** ≤ 1 nM

— ChEMBL document CHEMBL5233252, “Single and dual target inhibitors based on Bcl-2: Promising anti-tumor agents for cancer therapy” (Eur J Med Chem, 2020)
